Experimental data reported in US9896434B2, “Substituted indanone compounds as GPR119 modulators for the treatment of diabetes, obesity, dyslipidemia and related disorders” (SANOFI, priority 2014, dated 2018).

Target: T1, human GPR119 (Homo sapiens, UniProt Q8TDV5)
T1 construct: expressed in transfected cells
T1 sequence (Q8TDV5 1-335): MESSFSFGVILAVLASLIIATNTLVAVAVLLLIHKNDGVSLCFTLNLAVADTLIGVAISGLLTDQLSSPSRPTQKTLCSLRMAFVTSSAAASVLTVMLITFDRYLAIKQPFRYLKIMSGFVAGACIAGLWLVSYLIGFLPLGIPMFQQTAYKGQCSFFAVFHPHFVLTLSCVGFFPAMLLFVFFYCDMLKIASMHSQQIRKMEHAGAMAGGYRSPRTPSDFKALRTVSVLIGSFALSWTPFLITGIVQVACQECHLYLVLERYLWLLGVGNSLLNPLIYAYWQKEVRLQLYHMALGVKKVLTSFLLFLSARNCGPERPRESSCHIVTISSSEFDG
Experiment: Functional cellular assay measuring GPR119-mediated cAMP release (HTRF)
Assay type: cell-based
Conditions: HEK-293 cell line stably expressing recombinant human GPR119; cAMP response, 30 minutes at room temperature
Experimental: Functional Cellular Assays Measuring GPR119-Mediated cAMP Release
Compounds of the invention, which are agonists of GPR119, were characterized by functional assays measuring the cAMP response of HEK-293 cell lines stably expressing recombinant GPR119 from man, mouse or rat, or by using a hamster cell line HIT-T15 expressing GPR119 endogenously. The cAMP content was determined using a kit based on homogenous time-resolved fluorescence (HTRF) from Cisbio Corp. (cat. no. 62AM4PEC). For preparation, cells were split into T175 culture flasks and grown to near confluency in medium (DMEM/10% FCS for HEK-293 cells, and F-12K medium/10% horse serum/2.5% FCS for HIT-T15 cells, respectively). Medium was then removed and cells washed with PBS lacking calcium and magnesium ions, followed by proteinase treatment with accutase (Sigma-Aldrich, cat. no. A6964). Detached cells were washed and resuspended in assay buffer (1×HBSS; 20 mM HEPES, 0.1% BSA, 2 mM IBMX) and cellular density determined. They were then diluted to 400000 cells/mL and 25 μL-aliquots dispensed to the wells of 96-well plates. For measurement, 25 μL of test compound in assay buffer was added and incubated for 30 minutes at room temperature. After addition of HTRF reagents diluted in lysis buffer, the plates were incubated for 1 hour, followed by measuring the fluorescence ratio at 665 vs. 620 nm. Potency of the agonists was quantified by determining the concentrations that caused 50% of the maximal response/activation (EC50). See Table 4 for exemplary data obtained using the cell line expressing human GPR119.

How did the EC50 turn out when `CN(C)C(=O)CC1Cc2c(F)cc(N3CC[C@@H](Oc4ccc(OCC5CC5)nc4)C3=O)cc2C1=O` (stereo partly drawn) [Example 3-06, 2-[6-[(3R)-3-[[6-(cyclopropylmethoxy)-3-pyridyl]oxy]-2-oxo-pyrrolidin-1-yl]-4-fluoro-1-oxo-indan-2-yl]-N,N-dimethyl-acetamide] was run?
Its EC50 is 46 nM.

For `O=C(O)C[C@@H]1CC(=O)c2cc(N3CC[C@@H](Oc4ccc(OCC5CC5)nc4)C3=O)ccc21` [Example 2-05, 2-[(1S)-5-[(3R)-3-[[6-(cyclopropylmethoxy)-3-pyridyl]oxy]-2-oxo-pyrrolidin-1-yl]-3-oxo-indan-1-yl]acetic acid], which EC50 is on record?
Its EC50 is 1990 nM.

With `O=C(CC1CC(=O)c2cc(N3CC[C@@H](Oc4ccc(OCC5CC5)nc4)C3=O)ccc21)NC1CC1` (stereo partly drawn) [Example 3-03, N-cyclopropyl-2-[5-[(3R)-3-[[6-(cyclopropylmethoxy)-3-pyridyl]oxy]-2-oxo-pyrrolidin-1-yl]-3-oxo-indan-1-yl]acetamide] as the compound, how does the EC50 read?
The EC50 was 339 nM.

`COC(=O)C[C@@H]1CC(=O)c2cc(N3CC[C@@H](Oc4ccc(OCC5CC5)nc4)C3=O)ccc21` [Example 1-14, methyl 2-[(1S)-5-[(3R)-3-[[6-(cyclopropylmethoxy)-3-pyridyl]oxy]-2-oxo-pyrrolidin-1-yl]-3-oxo-indan-1-yl]acetate] was tested. Which EC50 did it give?
The EC50 was 19 nM.

How did the EC50 turn out when `O=C1c2cc(N3CC[C@@H](Oc4ccc(OCC5CC5)nc4)C3=O)cc(F)c2CC1CC(=O)N1CCOCC1` (stereo partly drawn) [Example 3-07, (3R)-3-[[6-(cyclopropylmethoxy)-3-pyridyl]oxy]-1-[7-fluoro-2-(2-morpholino-2-oxo-ethyl)-3-oxo-indan-5-yl]pyrrolidin-2-one] was run?
The EC50 was 83 nM.

With `COC(=O)CC1Cc2ccc(N3CCC(Oc4ccc(OCCC(C)C)cc4)C3=O)cc2C1=O` (stereo not drawn) [Example 1-02, methyl 2-[6-[3-(4-isopentyloxyphenoxy)-2-oxo-pyrrolidin-1-yl]-1-oxo-indan-2-yl]acetate] as the compound, how does the EC50 read?
Its EC50 is 262 nM.

`CN(C)C(=O)C1CC(=O)c2cc(N3CC[C@@H](Oc4ccc(OCC5CC5)nc4)C3=O)cc(F)c21` (stereo partly drawn) [Example 1-16, 5-[(3R)-3-[[6-(cyclopropylmethoxy)-3-pyridyl]oxy]-2-oxo-pyrrolidin-1-yl]-7-fluoro-N,N-dimethyl-3-oxo-indane-1-carboxamide] was tested. Which EC50 did it give?
The EC50 was 117 nM.

`O=C1CC(CO)c2ccc(N3CC[C@@H](Oc4ccc(OCC5CC5)nc4)C3=O)cc21` (stereo partly drawn) [Example 1-18, (3R)-3-[[6-(cyclopropylmethoxy)-3-pyridyl]oxy]-1-[1-(hydroxymethyl)-3-oxo-indan-5-yl]pyrrolidin-2-one] was tested. Which EC50 did it give?
The EC50 was 198 nM.

How did the EC50 turn out when `COC(=O)CC1CC(=O)c2cc(N3CC[C@@H](Oc4ccc(OCC5CC5)nc4)C3=O)cc(F)c21` (stereo partly drawn) [Example 1-09, methyl 2-[5-[(3R)-3-[[6-(cyclopropylmethoxy)-3-pyridyl]oxy]-2-oxo-pyrrolidin-1-yl]-7-fluoro-3-oxo-indan-1-yl]acetate] was run?
The EC50 was 12 nM.

How did the EC50 turn out when `COC(=O)CC1(CC(=O)O)Cc2c(F)cc(N3CC[C@@H](Oc4ccc(OCC5CC5)nc4)C3=O)cc2C1=O` (stereo partly drawn) [Example 1-07, 2-[6-[(3R)-3-[[6-(cyclopropylmethoxy)-3-pyridyl]oxy]-2-oxo-pyrrolidin-1-yl]-4-fluoro-2-(2-methoxy-2-oxo-ethyl)-1-oxo-indan-2-yl]acetic acid] was run?
Its EC50 is 332 nM.

Which EC50 does the source give for `O=C(O)CC1Cc2c(F)cc(N3CC[C@@H](Oc4ccc(OCC5CC5)nc4)C3=O)cc2C1=O` (stereo partly drawn) [Example 2-01, {6-[(R)-3-(6-cyclopropylmethoxy-pyridin-3-yloxy)-2-oxo-pyrrolidin-1-yl]-4-fluoro-1-oxo-indan-2-yl}-acetic acid] here?
Its EC50 is 360 nM.

How did the EC50 turn out when `CNC(=O)CC1CC(=O)c2cc(N3CC[C@@H](Oc4ccc(OCC5CC5)nc4)C3=O)ccc21` (stereo partly drawn) [Example 3-02, 2-[5-[(3R)-3-[[6-(cyclopropylmethoxy)-3-pyridyl]oxy]-2-oxo-pyrrolidin-1-yl]-3-oxo-indan-1-yl]-N-methyl-acetamide] was run?
The EC50 was 188 nM.

Which EC50 does the source give for `CN(C)C(=O)CC1CC(=O)c2cc(N3CC[C@@H](Oc4ccc(OCC5CC5)nc4)C3=O)ccc21` (stereo partly drawn) [Example 3-01, 2-[5-[(3R)-3-[[6-(cyclopropylmethoxy)-3-pyridyl]oxy]-2-oxo-pyrrolidin-1-yl]-3-oxo-indan-1-yl]-N,N-dimethyl-acetamide] here?
The EC50 was 82 nM.

Which EC50 does the source give for `NC(=O)CC1Cc2c(F)cc(N3CC[C@@H](Oc4ccc(OCC5CC5)nc4)C3=O)cc2C1=O` (stereo partly drawn) [Example 3-05, 2-[6-[(3R)-3-[[6-(cyclopropylmethoxy)-3-pyridyl]oxy]-2-oxo-pyrrolidin-1-yl]-4-fluoro-1-oxo-indan-2-yl]acetamide] here?
Its EC50 is 78 nM.

Which EC50 does the source give for `O=C(O)C[C@H]1CC(=O)c2cc(N3CC[C@@H](Oc4ccc(OCC5CC5)nc4)C3=O)ccc21` [Example 2-04, 2-[5-[(3R)-3-[[6-(cyclopropylmethoxy)-3-pyridyl]oxy]-2-oxo-pyrrolidin-1-yl]-3-oxo-indan-1-yl]acetic acid] here?
Its EC50 is 505 nM.

With `COC(=O)CC1CC(=O)c2cc(N3CC[C@@H](Oc4ccc(OCC5CC5)nc4)C3=O)ccc21` (stereo partly drawn) [Example 1-06, methyl 2-[5-[(3R)-3-[[6-(cyclopropylmethoxy)-3-pyridyl]oxy]-2-oxo-pyrrolidin-1-yl]-3-oxo-indan-1-yl]acetate] as the compound, how does the EC50 read?
The EC50 was 19 nM.

For `O=C1CC(CCO)c2ccc(N3CC[C@@H](Oc4ccc(OCC5CC5)nc4)C3=O)cc21` (stereo partly drawn) [Example 1-08, (3R)-3-[[6-(cyclopropylmethoxy)-3-pyridyl]oxy]-1-[1-(2-hydroxyethyl)-3-oxo-indan-5-yl]pyrrolidin-2-one], which EC50 is on record?
The EC50 was 79 nM.

How did the EC50 turn out when `O=C1CC(CCO)c2ccc(N3CC[C@@H](Oc4ccc(Oc5ccc(F)cc5)nc4)C3=O)cc21` (stereo partly drawn) [Example 1-01, (3R)-3-[[6-(4-Fluorophenoxy)-3-pyridyl]oxy]-1-[1-(2-hydroxyethyl)-3-oxo-indan-5-yl]pyrrolidin-2-one] was run?
Its EC50 is 311 nM.

For `COC(=O)CC1CC(=O)c2cc(N3CC[C@@H](Oc4ccc(Oc5ccc(F)cc5)cc4)C3=O)ccc21` (stereo partly drawn) [Example 1-03, methyl 2-[5-[(3R)-3-[4-(4-fluorophenoxy)phenoxy]-2-oxo-pyrrolidin-1-yl]-3-oxo-indan-1-yl]acetate], which EC50 is on record?
The EC50 was 111 nM.

For `O=C1c2cc(N3CC[C@@H](Oc4ccc(OCC5CC5)nc4)C3=O)cc(F)c2CC1CCO` (stereo partly drawn) [Example 1-05, (3R)-3-[[6-(cyclopropylmethoxy)-3-pyridyl]oxy]-1-[7-fluoro-2-(2-hydroxyethyl)-3-oxo-indan-5-yl]pyrrolidin-2-one], which EC50 is on record?
Its EC50 is 233 nM.

Which EC50 does the source give for `NC(=O)CC1CC(=O)c2cc(N3CC[C@@H](Oc4ccc(OCC5CC5)nc4)C3=O)cc(F)c21` (stereo partly drawn) [Example 3-10, 2-[5-[(3R)-3-[[6-(cyclopropylmethoxy)-3-pyridyl]oxy]-2-oxo-pyrrolidin-1-yl]-7-fluoro-3-oxo-indan-1-yl]acetamide] here?
Its EC50 is 73 nM.

Which EC50 does the source give for `COC(=O)CC1Cc2c(F)cc(N3CC[C@@H](Oc4ccc(OCC5CC5)nc4)C3=O)cc2C1=O` (stereo partly drawn) [Example 1-04, {6-[(R)-3-(6-cyclopropylmethoxy-pyridin-3-yloxy)-2-oxo-pyrrolidin-1-yl]-4-fluoro-1-oxo-indan-2-yl}-acetic acid methyl ester] here?
Its EC50 is 14 nM.

With `O=C(CC1Cc2c(F)cc(N3CC[C@@H](Oc4ccc(OCC5CC5)nc4)C3=O)cc2C1=O)NCCO` (stereo partly drawn) [Example 3-09, 2-{6-[(R)-3-(6-cyclopropylmethoxy-pyridin-3-yloxy)-2-oxo-pyrrolidin-1-yl]-4-fluoro-1-oxo-indan-2-yl}-N-(2-hydroxy-ethyl)-acetamide] as the compound, how does the EC50 read?
The EC50 was 289 nM.

`NC(=O)CC1CC(=O)c2cc(N3CC[C@@H](Oc4ccc(OCC5CC5)nc4)C3=O)ccc21` (stereo partly drawn) [Example 3-04, 2-[5-[(3R)-3-[[6-(cyclopropylmethoxy)-3-pyridyl]oxy]-2-oxo-pyrrolidin-1-yl]-3-oxo-indan-1-yl]acetamide] was tested. Which EC50 did it give?
The EC50 was 320 nM.

With `O=C(O)CC1CC(=O)c2cc(N3CC[C@@H](Oc4ccc(OCC5CC5)nc4)C3=O)ccc21` (stereo partly drawn) [Example 2-02, {5-[(R)-3-(6-Cyclopropylmethoxy-pyridin-3-yloxy)-2-oxo-pyrrolidin-1-yl]-3-oxo-indan-1-yl}-acetic acid] as the compound, how does the EC50 read?
Its EC50 is 135 nM.

With `CN(C)C(=O)CC1CC(=O)c2cc(N3CC[C@@H](Oc4ccc(OCC5CC5)nc4)C3=O)cc(F)c21` (stereo partly drawn) [Example 3-11, 2-[5-[(3R)-3-[[6-(cyclopropylmethoxy)-3-pyridyl]oxy]-2-oxo-pyrrolidin-1-yl]-7-fluoro-3-oxo-indan-1-yl]-N,N-dimethyl-acetamide] as the compound, how does the EC50 read?
The EC50 was 59 nM.

Which EC50 does the source give for `COC(=O)CC1CC(=O)c2cc(N3CC[C@@H](Oc4ccc(OC5CC5)nc4)C3=O)ccc21` (stereo partly drawn) [Example 1-13, methyl 2-[5-[(3R)-3-[[6-(cyclopropoxy)-3-pyridyl]oxy]-2-oxo-pyrrolidin-1-yl]-3-oxo-indan-1-yl]acetate] here?
Its EC50 is 98 nM.
